# pIC50: −log10 of the molar value. The source made the active and inactive calls. The calls are words filed in the database; no cut-off is given here.
# What was measured:
# MV4-11 = assay: Induction of apoptosis in human MV4-11 cells assessed as late apoptotic cells at 1 uM measured after 6 hrs by annexin V-FITC/PI staining based FACS assay (reference value: 16.21%); assay type: functional
# [1] = biological target: Histone deacetylase 2 (Mus musculus) (UniProt P70288); assay: Inhibition of HDAC2 in mouse C2C12 cells at 5 uM incubated for 72 hrs by immunofluorescence analysis; assay type: cell-based
# Sequence of Histone deacetylase 2 (Mus musculus) (P70288 whole entry, the tested form may be a part): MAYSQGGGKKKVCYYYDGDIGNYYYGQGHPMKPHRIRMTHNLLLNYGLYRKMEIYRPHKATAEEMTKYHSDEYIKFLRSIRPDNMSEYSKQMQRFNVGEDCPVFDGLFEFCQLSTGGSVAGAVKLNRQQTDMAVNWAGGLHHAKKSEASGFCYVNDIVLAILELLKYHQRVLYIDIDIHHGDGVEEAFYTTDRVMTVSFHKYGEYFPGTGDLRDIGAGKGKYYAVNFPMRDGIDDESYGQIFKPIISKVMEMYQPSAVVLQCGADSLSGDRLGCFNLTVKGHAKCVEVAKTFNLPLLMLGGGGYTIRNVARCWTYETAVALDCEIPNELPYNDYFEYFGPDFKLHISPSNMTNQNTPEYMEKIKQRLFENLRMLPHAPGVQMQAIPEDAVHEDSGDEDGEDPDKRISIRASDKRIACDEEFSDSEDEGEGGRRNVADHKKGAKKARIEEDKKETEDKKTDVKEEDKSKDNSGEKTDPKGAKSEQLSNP
# Histone deacetylase 2 [2] = biological target: T1, Histone deacetylase 2 (Homo sapiens, UniProt Q92769); assay: Binding affinity to recombinant full length HDAC2 catalytic domain Cys274 (unknown origin) assessed as formation of single covalent adduct at 50 uM incubated for 2 hrs by trypsin-digest protein mapping analysis
# T1 sequence (Q92769 whole entry, the tested form may be a part): as the sequence (P70288 whole entry, the tested form may be a part) above, with A289V, P477T, A480T counted along it
# Histone deacetylase 1 = Histone deacetylase 1 (Homo sapiens, UniProt Q13547); assay: Inhibition of HDAC1 (unknown origin) using 6-carboxyfluorescein peptide as substrate preincubated with compound followed by substrate addition by electrophoretic mobility shift assay
# Sequence of Histone deacetylase 1 (Q13547 whole entry): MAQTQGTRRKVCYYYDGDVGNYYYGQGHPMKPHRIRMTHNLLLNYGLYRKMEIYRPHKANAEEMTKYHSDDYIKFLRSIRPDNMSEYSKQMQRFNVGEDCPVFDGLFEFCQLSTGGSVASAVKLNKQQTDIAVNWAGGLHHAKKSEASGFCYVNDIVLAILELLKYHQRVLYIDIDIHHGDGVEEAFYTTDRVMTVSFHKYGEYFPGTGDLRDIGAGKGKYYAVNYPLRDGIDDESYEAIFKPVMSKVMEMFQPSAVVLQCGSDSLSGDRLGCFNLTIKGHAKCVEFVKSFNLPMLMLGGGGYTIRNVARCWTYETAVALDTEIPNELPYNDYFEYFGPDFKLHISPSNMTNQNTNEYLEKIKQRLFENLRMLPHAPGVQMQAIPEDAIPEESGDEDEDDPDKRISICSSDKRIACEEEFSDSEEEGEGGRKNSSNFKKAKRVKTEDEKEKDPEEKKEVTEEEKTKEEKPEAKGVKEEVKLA
# Histone deacetylase 2 [3] = biological target: T1, Histone deacetylase 2; assay: Inhibition of HDAC2 (unknown origin) using 6-carboxyfluorescein peptide as substrate preincubated with compound for 2 hrs followed by substrate addition by electrophoretic mobility shift assay
# Histone deacetylase 3 = Histone deacetylase 3 (Homo sapiens, UniProt O15379); assay: Inhibition of full length recombinant human HDAC3 expressed in Sf9 cells using 6-carboxyfluorescein peptide as substrate preincubated with compound for 6 hrs followed by substrate addition and measured after 3 hrs by electrophoretic mobility shift assay; assay type: cell-based
# Sequence of Histone deacetylase 3 (O15379 whole entry): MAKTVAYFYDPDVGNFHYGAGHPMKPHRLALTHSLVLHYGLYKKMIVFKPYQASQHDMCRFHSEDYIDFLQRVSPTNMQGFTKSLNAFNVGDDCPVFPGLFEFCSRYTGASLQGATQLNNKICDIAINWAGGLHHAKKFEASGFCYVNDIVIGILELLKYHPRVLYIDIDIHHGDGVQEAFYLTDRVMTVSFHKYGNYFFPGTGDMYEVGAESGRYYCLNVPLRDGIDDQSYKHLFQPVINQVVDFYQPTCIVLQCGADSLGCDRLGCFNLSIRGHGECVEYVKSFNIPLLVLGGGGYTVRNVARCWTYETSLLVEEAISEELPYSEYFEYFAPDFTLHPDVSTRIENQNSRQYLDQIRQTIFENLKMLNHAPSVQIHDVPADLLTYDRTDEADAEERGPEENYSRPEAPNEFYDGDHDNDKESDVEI
# [4] = biological target: T2, Protein deacetylase HDAC6 (Homo sapiens, UniProt Q9UBN7); assay: Inhibition of full length recombinant human HDAC6 expressed in Sf9 cells using 6-carboxyfluorescein peptide as substrate preincubated with compound for 6 hrs followed by substrate addition and measured after 5 hrs by electrophoretic mobility shift assay
# T2 sequence (Q9UBN7 whole entry): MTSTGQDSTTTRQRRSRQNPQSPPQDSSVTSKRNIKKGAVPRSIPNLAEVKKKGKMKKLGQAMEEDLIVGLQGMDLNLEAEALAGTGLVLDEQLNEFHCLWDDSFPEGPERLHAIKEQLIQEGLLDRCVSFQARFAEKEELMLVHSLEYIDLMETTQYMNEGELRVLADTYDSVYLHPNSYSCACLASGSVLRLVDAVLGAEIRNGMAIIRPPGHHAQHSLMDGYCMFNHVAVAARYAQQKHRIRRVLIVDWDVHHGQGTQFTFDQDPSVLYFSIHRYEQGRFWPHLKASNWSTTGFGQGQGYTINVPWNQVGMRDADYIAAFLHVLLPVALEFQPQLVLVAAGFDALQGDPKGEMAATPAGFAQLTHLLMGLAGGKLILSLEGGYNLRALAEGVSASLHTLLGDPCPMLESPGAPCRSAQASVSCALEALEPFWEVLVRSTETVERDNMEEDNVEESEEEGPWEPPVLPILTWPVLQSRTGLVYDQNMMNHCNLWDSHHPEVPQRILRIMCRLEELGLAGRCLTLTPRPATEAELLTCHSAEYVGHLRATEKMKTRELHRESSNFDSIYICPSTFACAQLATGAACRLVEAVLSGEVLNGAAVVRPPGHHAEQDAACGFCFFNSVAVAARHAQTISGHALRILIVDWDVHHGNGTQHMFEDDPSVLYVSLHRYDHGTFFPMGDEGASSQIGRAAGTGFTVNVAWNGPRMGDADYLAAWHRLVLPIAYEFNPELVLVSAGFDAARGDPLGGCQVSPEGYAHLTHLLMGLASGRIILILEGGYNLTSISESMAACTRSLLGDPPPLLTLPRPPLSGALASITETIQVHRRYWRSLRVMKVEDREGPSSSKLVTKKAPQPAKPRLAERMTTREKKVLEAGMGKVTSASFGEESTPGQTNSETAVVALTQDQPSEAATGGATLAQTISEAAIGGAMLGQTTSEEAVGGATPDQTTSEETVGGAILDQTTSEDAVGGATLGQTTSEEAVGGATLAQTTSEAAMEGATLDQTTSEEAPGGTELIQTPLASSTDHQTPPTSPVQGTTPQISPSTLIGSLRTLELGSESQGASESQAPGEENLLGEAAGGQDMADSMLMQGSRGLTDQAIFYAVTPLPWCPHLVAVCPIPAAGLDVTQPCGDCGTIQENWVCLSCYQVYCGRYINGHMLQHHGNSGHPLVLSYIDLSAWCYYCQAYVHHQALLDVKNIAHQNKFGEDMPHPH
# Histone deacetylase 9 = Histone deacetylase 9 (Homo sapiens, UniProt Q9UKV0); assay: Inhibition of HDAC9 (unknown origin) using 6-carboxyfluorescein peptide as substrate preincubated with compound for 6 hrs followed by substrate addition by electrophoretic mobility shift assay
# Sequence of Histone deacetylase 9 (Q9UKV0 whole entry): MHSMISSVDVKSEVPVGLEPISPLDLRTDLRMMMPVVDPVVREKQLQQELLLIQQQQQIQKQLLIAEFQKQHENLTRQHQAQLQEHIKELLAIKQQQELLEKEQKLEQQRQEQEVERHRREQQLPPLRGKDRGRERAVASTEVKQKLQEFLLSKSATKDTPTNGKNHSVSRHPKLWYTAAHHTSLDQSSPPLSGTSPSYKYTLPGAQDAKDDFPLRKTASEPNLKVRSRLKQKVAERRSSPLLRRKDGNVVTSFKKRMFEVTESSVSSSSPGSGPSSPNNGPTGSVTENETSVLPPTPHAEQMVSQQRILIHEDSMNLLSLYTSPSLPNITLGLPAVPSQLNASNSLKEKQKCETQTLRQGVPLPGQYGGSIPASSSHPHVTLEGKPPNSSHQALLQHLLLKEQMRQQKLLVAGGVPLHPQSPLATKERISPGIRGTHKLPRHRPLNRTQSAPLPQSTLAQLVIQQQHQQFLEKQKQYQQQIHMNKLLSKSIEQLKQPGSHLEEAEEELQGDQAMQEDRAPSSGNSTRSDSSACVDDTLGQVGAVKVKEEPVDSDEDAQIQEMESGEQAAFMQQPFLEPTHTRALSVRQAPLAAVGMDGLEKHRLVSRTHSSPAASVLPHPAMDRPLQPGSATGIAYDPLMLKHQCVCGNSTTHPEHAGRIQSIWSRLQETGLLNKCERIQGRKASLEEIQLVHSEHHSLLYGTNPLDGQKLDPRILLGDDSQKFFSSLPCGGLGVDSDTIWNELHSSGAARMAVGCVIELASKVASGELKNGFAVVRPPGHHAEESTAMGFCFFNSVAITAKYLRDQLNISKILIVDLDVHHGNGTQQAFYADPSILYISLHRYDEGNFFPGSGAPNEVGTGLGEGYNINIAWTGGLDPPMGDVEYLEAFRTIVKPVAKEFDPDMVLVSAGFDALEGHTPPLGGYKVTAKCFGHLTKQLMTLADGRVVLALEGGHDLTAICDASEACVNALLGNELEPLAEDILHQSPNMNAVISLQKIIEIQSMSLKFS
# [5] = biological target: T3, Polyamine deacetylase HDAC10 (Homo sapiens, UniProt Q969S8); assay: Inhibition of HDAC10 (unknown origin) using 6-carboxyfluorescein peptide as substrate preincubated with compound for 6 hrs followed by substrate addition by electrophoretic mobility shift assay
# T3 sequence (Q969S8 whole entry): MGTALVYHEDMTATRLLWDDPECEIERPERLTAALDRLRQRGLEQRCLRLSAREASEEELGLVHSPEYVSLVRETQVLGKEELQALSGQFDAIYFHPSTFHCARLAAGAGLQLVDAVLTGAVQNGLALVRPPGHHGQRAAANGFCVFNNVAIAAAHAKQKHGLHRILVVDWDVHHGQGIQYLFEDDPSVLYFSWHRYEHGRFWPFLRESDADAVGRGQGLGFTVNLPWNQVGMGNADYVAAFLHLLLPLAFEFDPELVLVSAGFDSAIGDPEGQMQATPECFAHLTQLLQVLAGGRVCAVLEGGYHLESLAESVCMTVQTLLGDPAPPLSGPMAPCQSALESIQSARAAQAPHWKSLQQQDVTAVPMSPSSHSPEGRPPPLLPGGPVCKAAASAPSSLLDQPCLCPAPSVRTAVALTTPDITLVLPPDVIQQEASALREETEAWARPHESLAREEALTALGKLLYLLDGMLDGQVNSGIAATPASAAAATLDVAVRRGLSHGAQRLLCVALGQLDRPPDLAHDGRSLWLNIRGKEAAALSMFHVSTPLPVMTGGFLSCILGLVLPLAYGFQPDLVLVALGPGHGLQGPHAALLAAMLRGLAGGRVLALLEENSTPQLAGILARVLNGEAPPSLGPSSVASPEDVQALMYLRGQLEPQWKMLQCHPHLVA
# Histone deacetylase 11 = biological target: T4, Histone deacetylase 11 (Homo sapiens, UniProt Q96DB2); assay: Inhibition of full length recombinant human HDAC11 expressed in Sf9 cells using 6-carboxyfluorescein peptide as substrate preincubated with compound for 6 hrs followed by substrate addition and measured after 17 hrs by electrophoretic mobility shift assay
# T4 sequence (Q96DB2 whole entry): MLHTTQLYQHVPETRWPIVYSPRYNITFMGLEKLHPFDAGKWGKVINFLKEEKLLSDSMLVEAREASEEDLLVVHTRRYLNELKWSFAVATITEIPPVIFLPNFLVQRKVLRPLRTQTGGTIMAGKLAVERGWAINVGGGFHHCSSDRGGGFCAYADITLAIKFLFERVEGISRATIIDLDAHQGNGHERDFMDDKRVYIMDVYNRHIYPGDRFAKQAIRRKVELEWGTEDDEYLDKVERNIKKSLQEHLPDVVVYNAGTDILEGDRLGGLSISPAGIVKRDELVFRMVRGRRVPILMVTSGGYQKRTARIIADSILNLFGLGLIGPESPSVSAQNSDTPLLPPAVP
smiles,measurement,setting,value
Nc1ccccc1NC(=O)c1ccc(CNC(=O)OC2CCN(S(=O)(=O)c3c(F)c(F)c(F)c(F)c3F)CC2)cc1,Activity,MV4-11,48.31%
same,inhibition,[1],Active
same,Activity,Histone deacetylase 2 [2],Active
same,pIC50,Histone deacetylase 1,6.62
same,pIC50,Histone deacetylase 2 [3],6.49
same,pIC50,Histone deacetylase 3,6.84
same,pIC50,[4],< 5.00
same,pIC50,Histone deacetylase 9,< 5.00
same,pIC50,[5],< 5.00
same,pIC50,Histone deacetylase 11,< 5.70

# Reference: ChEMBL document CHEMBL5375983, “Discovery of YSR734: A Covalent HDAC Inhibitor with Cellular Activity in Acute Myeloid Leukemia and Duchenne Muscular Dystrophy” (J Med Chem, 2023)
